# According to patent US11357759B2, “Composition including ADAM9 inhibitor and the use thereof” (China Medical University, priority 2017, dated 2022):
# Experiments:
# recombinant human ADAM9 = biological target: T1, recombinant human ADAM9 (Homo sapiens, UniProt Q13443); assay: ADAM9 enzymatic activity, ELISA system with fluorogenic peptide substrate; format: biochemical
# T1 construct: purchased R&D system
# T1 sequence (Q13443 29-819): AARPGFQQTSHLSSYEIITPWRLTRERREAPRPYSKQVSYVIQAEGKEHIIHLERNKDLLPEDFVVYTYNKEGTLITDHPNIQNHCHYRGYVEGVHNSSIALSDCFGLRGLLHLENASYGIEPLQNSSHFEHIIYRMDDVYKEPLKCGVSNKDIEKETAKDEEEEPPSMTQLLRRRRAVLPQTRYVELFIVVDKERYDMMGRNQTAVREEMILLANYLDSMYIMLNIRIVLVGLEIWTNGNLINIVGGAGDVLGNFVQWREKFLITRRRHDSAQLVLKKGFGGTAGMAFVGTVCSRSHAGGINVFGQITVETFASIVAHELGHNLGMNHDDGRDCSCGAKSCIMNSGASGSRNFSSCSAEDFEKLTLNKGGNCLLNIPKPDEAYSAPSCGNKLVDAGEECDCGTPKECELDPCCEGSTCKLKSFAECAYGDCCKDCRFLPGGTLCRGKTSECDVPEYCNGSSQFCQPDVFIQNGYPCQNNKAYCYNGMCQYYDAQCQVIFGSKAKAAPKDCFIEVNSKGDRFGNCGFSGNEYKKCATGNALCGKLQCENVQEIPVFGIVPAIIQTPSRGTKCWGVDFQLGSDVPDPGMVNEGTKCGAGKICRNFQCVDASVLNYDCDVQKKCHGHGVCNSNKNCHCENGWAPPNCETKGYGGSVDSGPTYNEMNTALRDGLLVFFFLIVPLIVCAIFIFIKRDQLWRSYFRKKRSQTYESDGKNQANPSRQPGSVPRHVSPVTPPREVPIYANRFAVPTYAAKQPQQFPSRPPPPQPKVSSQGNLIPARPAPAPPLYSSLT
# Experimental: To measure the efficacy of ADAM9 inhibitors in suppression of ADAM9 enzymatic activity, we established an ELISA system using recombinant human ADAM9 and a fluorogenic peptide substrate (R&D system). Broad-spectrum metalloprotease inhibitor BB-94 was included as a positive control. […] To evaluate the specificity of ADAM9 inhibitors, we performed a migration inhibition assay in control (shGFP) and ADAM9 knockdown (shADAM9) lung cancer cells in the presence of 25 μM of each compound. […] To ensure the generality of the compounds in blocking anoikis-resistance of cancer cells, we determined the IC50 of representative compounds for anoikis (anchorage-free induced apoptosis) in cancer cell lines and leukocytes in anchorage-free culture conditions. […] Plating efficiency of Bm7 treated with 20 μM ADAM9 inhibitor and TC1 cells treated with 10 μM ADAM9 inhibitor was shown. Control and ADAM9 knockout (KO) TC1 cells were treated with ADAM9 inhibitor for 24 hours and then stained with annexin V and PI. The apoptotic cells (Annexin V positive cells) are indicated as the percentage of gated cells from three independent experiments with mean±SD.
# ADAM17 = ADAM17 (Homo sapiens, UniProt P78536); assay: ADAM17 inhibition; format: biochemical
# [1] = system: lung cancer cells in suspension culture; assay: Cytotoxicity of lung cancer cells in suspension culture; format: cell-based
# Description: The representative derivatives can reduce CDCP1 expression.
# 4T1-luc cells = assay: 4T1-luc breast tumor model, adjuvant therapy after surgery; format: in vivo; conditions: for mice with no relapse: adjuvant after surgery, 12W0271 10 mg/kg s.c. (over 333 days), doxorubicin 1 mg/kg i.p., 12 times
# Experimental: To compare the therapeutic effect of the inhibitors to chemotherapy agent doxorubicin in breast cancer treatment, we treated mice with 12W0271 or doxorubicin as adjuvant therapy after surgery of primary breast tumors. Balb/c mice received mammary fat pad injection of 5×10^4 4T1-luc cells. ADAM9 inhibitor was subcutaneously injected at 10 mg/kg once a day, 5 times per week for total 12 times. Doxorubicin was intraperitoneally injected at 1 mg/kg, once a day, 5 times per week for total 12 times. […] This breast tumor animal model is a clinically relevant triple negative breast cancer with poor outcome. In doxorubicin treatment, only one mouse (12.5%) had complete response with no relapse. Body weight of survived mice in doxorubicin and 12W0271 groups was determined on day 140. Dash line indicates average body weight in normal mice.
# TC1 lung cancer cells = assay: Metastatic lung tumor model (intravenous TC1), combination with cisplatin; format: in vivo, mice; conditions: ADAM9 inhibitor 4 mg/kg i.v., cisplatin 1.5 mg/kg i.p., twice a week for 4 weeks
# Experimental: To investigate the synergistic effect of chemotherapy drugs and ADAM9 inhibitors, we measured the cytotoxicity of individual and combination of cisplatin and 12W0271 for 3 days in TC1 cells by MTT. […] ADAM9 inhibitor (4 mg/kg) was intravenous injected twice a week for 4 weeks and cisplatin (1.5 mg/kg) was intraperitoneal injected twice a week for 4 weeks.
# ADAM17, sequence (P78536 215-824, species assumed): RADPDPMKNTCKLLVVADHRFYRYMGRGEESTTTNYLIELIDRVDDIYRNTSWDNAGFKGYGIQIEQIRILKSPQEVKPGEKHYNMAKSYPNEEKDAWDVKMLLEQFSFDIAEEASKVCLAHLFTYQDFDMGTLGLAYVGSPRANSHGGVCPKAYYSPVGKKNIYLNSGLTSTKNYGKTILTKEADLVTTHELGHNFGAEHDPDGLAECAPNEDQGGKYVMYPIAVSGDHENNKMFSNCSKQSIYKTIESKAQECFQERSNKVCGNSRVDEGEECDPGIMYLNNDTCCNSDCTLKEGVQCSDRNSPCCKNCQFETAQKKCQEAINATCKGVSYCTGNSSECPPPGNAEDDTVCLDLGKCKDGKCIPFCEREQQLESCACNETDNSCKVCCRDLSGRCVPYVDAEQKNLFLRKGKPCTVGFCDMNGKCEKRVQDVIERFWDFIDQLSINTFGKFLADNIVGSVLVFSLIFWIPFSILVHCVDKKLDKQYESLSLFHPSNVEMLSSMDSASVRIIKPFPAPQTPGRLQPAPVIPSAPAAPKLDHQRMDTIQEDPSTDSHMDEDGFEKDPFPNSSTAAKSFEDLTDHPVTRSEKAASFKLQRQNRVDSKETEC
SMILES,ADAM9 activity (recombinant human ADAM9),inhibitory effects in ADAM17 (ADAM17),"IC50 for the cytotoxicity of lung cancer cells, compared to compound 310 [1]",mice with no relapse (4T1-luc cells) [%],"condition and body size of survived mice (4T1-luc cells; long term, 10 mg/kg s.c.)",survival time (TC1 lung cancer cells)
O=C(Nc1nc(CCN2C(=O)c3ccccc3C2=O)cs1)c1cc2ccccc2s1 [6X-0214],decreased ADAM9 activity to a similar extent in a dose-dependent manner,no inhibitory effects,strongly reduced the IC50,,,
O=C1c2ccccc2C(=O)N1CCc1csc(Nc2nc(CCN3C(=O)c4ccccc4C3=O)cs2)n1 [12W-0271],decreased ADAM9 activity to a similar extent in a dose-dependent manner,no inhibitory effects,strongly reduced the IC50,37.5,healthy condition with bigger body size than the survival one in doxorubicin group,
N.N.[Cl][Pt][Cl] [cisplatin],,,,,,significantly prolonged survival time
"COc1cccc2c1C(=O)c1c(O)c3c(c(O)c1C2=O)C[C@@](O)(C(=O)CO)C[C@@H]3O[C@H]1C[C@H](N)[C@H](O)[C@H](C)O1 [doxorubicin, reference compound]",,,,12.5,,
